{"source": "patent EP0443996B1", "about": "“Esters of (R)(-)-carnitine and acyl (R)(-)-carnitines with beta-hydroxybutyric acid and pharmaceutical compositions containing them for inhibiting neuronal degeneration, liver proteolysis and for the treatment of coma” (Sigma-Tau Industrie Farmaceutiche Riunite S.p.A., priority 1990, dated 1991)", "key": {"[1]": {"tested_on": "acetaminophen (paracetamol)-induced hepatic damage", "experiment": "Protection against acetaminophen (paracetamol)-induced hepatic damage, serum transaminases", "assay_type": "in vivo, Male Wistar rats", "conditions": "SGOT and SGPT in blood serum; 101 mg/kg body weight orally 1, 8 and 24 hours after paracetamol 1 g/kg per os; sacrifice at 32 hours; with respect to the control animals", "method": "Male Wistar rats weighing 200-250 g (15 rats/group) that had been keept fasting for at least 12 hours, were administered a single dose of paracetamol (1 g/kg body weight, per os). 100 g paracetamol were dissolved in 1000 ml of 5% (w/v) carboxymethylcellulose suspension in water. […] 101 mg ST 784/kg body weight were administered orally (as aqueous solution) 1, 8 and 24 hours, respectively, following paracetamol administration. The animals were sacrificed 32 hours following paracetamol administration.\nTransaminases (SGOT and SGPT) were measured in blood serum. ST 784 provoked a decrease in transaminases exceding 60% ([…]) with respect to the control animals."}, "post-oligaemic rats [2]": {"tested_on": "post-oligaemic rats", "experiment": "Death rate after transient forebrain oligohaemia", "assay_type": "in vivo, Sprague-Dawley (Iffa Credo) male rats", "method": "(§1) The study was conducted with a view to assessing the therapeutical effect of ST 687 administered i.p. to rats immediately after the effect of a transient forebrain oligohaemia in the experiment animals were detected. In particular, the propensity of post-oligaemic rats to develop conditioning was studied in a one-trial passive avoidance task. Concurrently, the neurologic deficit during a 3-day period following the ischaemic insult was assessed, and finally the extent of the oedema was assessed by measuring the water content of the cerebral tissue.\n(§2) In the experiments Sprague-Dawley (Iffa Credo) male rats weighing 230-250 g were used, that had been caged (5 rats/cage) under conditions of controlled temperature (22°C±1°C), 50% relative humidity and 12-hours dark-light cycle (light on from 8 a.m. to 8 p.m.). The rats were fed UAR (Epinay Orge, France) laboratory chow and had free access to tap water. The rats were caged for 5 days before surgery.\n(§3) Under light ether anesthesia, carotid arteries were isolated and loosely surrounded by a thread. Twenty-four hours later, reversible incomplete forebrain ischemia was produced by bilateral common carotid artery occlusion combined with sodium nitroprusside-induced arterial hypotension (1.1 mg/rat s.c.). Mean arterial blood pressure (MABP) was lowered and maintained nearby 6.6 kPa for 45 min. Then it gruadually returned to normal within the 60th minute when carotid occlusion was removed."}, "post-oligaemic rats [3]": {"tested_on": "post-oligaemic rats", "experiment": "Cerebral oedema upon brain excision 77 hours post-oligohaemia", "assay_type": "in vivo, Sprague-Dawley (Iffa Credo) male rats", "conditions": "survivors", "method": "as §1, §2, §3\nImmediately after the last retention trial, i.e. 77 hours post-oligohaemia, rats were sacrificed by decapitation, their brains rapidly removed and macroscopically examined in terms of swelling. Brain water content was determined by the method wet weight/dry weight."}, "post-oligaemic rats [4]": {"tested_on": "post-oligaemic rats", "experiment": "One-trial passive avoidance task (retention of conditioned response)", "assay_type": "in vivo, Sprague-Dawley (Iffa Credo) male rats", "method": "as §1, §2, §3\nThe functional aspects of the cerebral ischemic injury were assessed by a one trial learning procedure (passive avoidance reaction) as originally described by Kurtz K. H. e Pearl J.: The effects of prior fear experience in acquired drive learning. J. Comp. Physiol, Psychol, 1960, 53 : 201-206, and more extensively developed by Buresova et al.: Effect of atropine on learning, extinction, retention and retrieval in rats. Psychopharmacologia, 1964, 5 : 255-263.\nFour hours after clipping-off untreated post-oligaemic rats were placed into an apparatus consisting of a large illuminated compartment (40 x 40 cm) connected by an opening to a small dark compartment (10 x 10 cm) with an electrified grid floor. The animals placed into the large compartment were allowed to explore the apparatus for three minutes. The latency to enter and the time spent in the small compartment were measured with a stop watch. Habituation to the experimental conditions was repeated 24 and 29 hours after ischemia. At the end of the third habituation trial, the opening between the two compartments was closed and the rat, placed into the small compartment, received intermittent electrical foot-shocks for one minute. The retention of the passive avoidance towards the small compartment was tested 24 and 48 hours after the last habituation trial i.e. 53 and 77 hours post-oligohaemia, respectively. The criterion used to determine whether an animal was conditioned was based upon the rat remaining in the large illuminated compartment for 180 sec. without entry into the small dark compartment."}}, "data": [{"molecule": "CC(CC(=O)O)OC(=O)CC(O)C[N+](C)(C)C", "note": "(racemic) [ST 784, ester of R(-)-carnitine chloride with R,S(±)beta-hydroxybutyric acid]", "values": [{"measurement": "decrease in transaminases", "setting": "[1]", "result": "> 60", "unit": "%"}]}, {"molecule": "CC(=O)O[C@H](CC(=O)[O-])C[N+](C)(C)C", "note": "[Acetyl (R)(-)-carni-tine, acetyl (R)(-)-carnitine, reference compound]", "values": [{"measurement": "Death rate after 72 hours (%)", "setting": "post-oligaemic rats [2]; 12,5 mg. kg i.p. twice a day", "result": "33,3%"}, {"measurement": "Death rate after 72 hours (%)", "setting": "post-oligaemic rats [2]; 25,0 mg. kg i.p. twice a day", "result": "41,2%"}, {"measurement": "Death rate after 72 hours (%)", "setting": "post-oligaemic rats [2]; 50,0 mg. kg i.p. twice a day", "result": "50,0%"}, {"measurement": "Incidence of cerebral oedema upon excision (3)", "setting": "post-oligaemic rats [3]; 12,5 mg. kg i.p. twice a day", "result": "80,0"}, {"measurement": "Incidence of cerebral oedema upon excision (3)", "setting": "post-oligaemic rats [3]; 25,0 mg. kg i.p. twice a day", "result": "60,0"}, {"measurement": "Incidence of cerebral oedema upon excision (3)", "setting": "post-oligaemic rats [3]; 50,0 mg. kg i.p. twice a day", "result": "90,0"}, {"measurement": "Incidence of retention of conditioned response (%)", "setting": "post-oligaemic rats [4]; 12,5 mg. kg i.p. twice a day, + 53 h", "result": "80,0%"}, {"measurement": "Incidence of retention of conditioned response (%)", "setting": "post-oligaemic rats [4]; 12,5 mg. kg i.p. twice a day, + 77 h", "result": "80,0%"}, {"measurement": "Incidence of retention of conditioned response (%)", "setting": "post-oligaemic rats [4]; 25,0 mg. kg i.p. twice a day, + 53 h", "result": "60,0%"}, {"measurement": "Incidence of retention of conditioned response (%)", "setting": "post-oligaemic rats [4]; 25,0 mg. kg i.p. twice a day, + 77 h", "result": "70,0%"}, {"measurement": "Incidence of retention of conditioned response (%)", "setting": "post-oligaemic rats [4]; 50,0 mg. kg i.p. twice a day, + 53 h", "result": "70,0%"}, {"measurement": "Incidence of retention of conditioned response (%)", "setting": "post-oligaemic rats [4]; 50,0 mg. kg i.p. twice a day, + 77 h", "result": "50,0%"}]}, {"molecule": "ester of isovaleryl (R)(-)-carnitine chloride with (R,S)(±)-beta-hydroxybutyric acid [ST 687]", "values": [{"measurement": "Death rate after 72 hours (%)", "setting": "post-oligaemic rats [2]; 2,5 mg. kg i.p. twice a day", "result": "47,4%"}, {"measurement": "Death rate after 72 hours (%)", "setting": "post-oligaemic rats [2]; 5,0 mg. kg i.p. twice a day", "result": "37,5%"}, {"measurement": "Death rate after 72 hours (%)", "setting": "post-oligaemic rats [2]; 7,5 mg. kg i.p. twice a day", "result": "62,5%"}, {"measurement": "Incidence of cerebral oedema upon excision (3)", "setting": "post-oligaemic rats [3]; 2,5 mg. kg i.p. twice a day", "result": "80,0"}, {"measurement": "Incidence of cerebral oedema upon excision (3)", "setting": "post-oligaemic rats [3]; 5,0 mg. kg i.p. twice a day", "result": "50,0"}, {"measurement": "Incidence of cerebral oedema upon excision (3)", "setting": "post-oligaemic rats [3]; 7,5 mg. kg i.p. twice a day", "result": "66,7"}, {"measurement": "Incidence of retention of conditioned response (%)", "setting": "post-oligaemic rats [4]; 2,5 mg. kg i.p. twice a day, + 53 h", "result": "20,0%"}, {"measurement": "Incidence of retention of conditioned response (%)", "setting": "post-oligaemic rats [4]; 2,5 mg. kg i.p. twice a day, + 77 h", "result": "40,0%"}, {"measurement": "Incidence of retention of conditioned response (%)", "setting": "post-oligaemic rats [4]; 5,0 mg. kg i.p. twice a day, + 53 h", "result": "60,0%"}, {"measurement": "Incidence of retention of conditioned response (%)", "setting": "post-oligaemic rats [4]; 5,0 mg. kg i.p. twice a day, + 77 h", "result": "60,0%"}, {"measurement": "Incidence of retention of conditioned response (%)", "setting": "post-oligaemic rats [4]; 7,5 mg. kg i.p. twice a day, + 53 h", "result": "53,3%"}, {"measurement": "Incidence of retention of conditioned response (%)", "setting": "post-oligaemic rats [4]; 7,5 mg. kg i.p. twice a day, + 77 h", "result": "66,7%"}]}]}
